Source: patent US6262051A, “Fungicidal methoximinomethyldioxazines” (Bayer Aktiengesellschaft, priority 1997, dated 2001)
Where two headings read alike, the source gives them in different places.

Tests used:
[1] = system: Plasmopara viticola; assay: Example D: Plasmopara test (grapevine)/protective; format: in vivo; details: protective, 6 days after inoculation, vs untreated control; for pest or weed control at 100 g/ha: Plasmopara viticola, 144 h, read-out: Efficacy in %; for Efficacy in %: 100 g/ha
Method: Plasmopara test (grapevine)/protective Solvent: 47 parts by weight of acetone Emulsifier: 3 parts by weight of alkylaryl polyglycol ether To produce a suitable preparation of active compound, 1 part by weight of active compound is mixed with the stated amount of solvent and emulsifier, and the concentrate is diluted with water to the desired concentration. To test for protective activity, young plants are sprayed with the preparation of active compound at the stated application rate. […]

[2] = HPLC logP; format: physicochemical
[3] = system: Sphaerotheca fuliginea; assay: Example E: Sphaerotheca test (cucumber)/protective; format: in vivo; details: protective, 100 g/ha, 10 days after inoculation, vs untreated control
Method: Sphaerotheca test (cucumber)/protective Solvent: 47 parts by weight of acetone Emulsifier: 3 parts by weight of alkylaryl polyglycol ether To produce a suitable preparation of active compound, 1 part by weight of active compound is mixed with the stated amount of solvent and emulsifier, and the concentrate is diluted with water to the desired concentration. To test for protective activity, young plants are sprayed with the preparation of active compound at the stated application rate. After the spray coating is dried on, the plants are inoculated with an aqueous spore suspension of Sphaerotheca fuliginea.

[4] = system: Pyricularia oryzae; format: in vivo; details: rice, protective; 750 g/ha; 4 days after inoculation; vs untreated control
[5] = system: Erysiphe graminis f.sp. hordei; assay: Example B: Erysiphe test (barley)/curative; format: in vivo; details: curative (sprayed 48 hours after inoculation), 250 g/ha, 7 days after inoculation, vs untreated control
Method: Erysiphe test (barley)/curative Solvent: 10 parts by weight of N-methyl-pyrrolidone Emulsifier: 0.6 part by weight of alkylaryl polyglycol ether To produce a suitable preparation of active compound, 1 part by weight of active compound is mixed with the stated amount of solvent and emulsifier, and the concentrate is diluted with water to the desired concentration. To test for curative activity, young plants are dusted with spores of Erysiphe graminis f.sp. hordei. 48 hours after the inoculation, the plants are sprayed with the preparation of active compound at the stated application rate. The plants are placed in a greenhouse at a temperature of approximately 20° C. and a relative atmospheric humidity of approximately 80% to promote the development of mildew postures.

In the case of CON=C(C1=NOCCO1)c1ccccc1Oc1nccc(OC(CF)CF)n1 [Example 1, (5,6-dihydro-[1,4,2]dioxazin-3-yl)-{2-[4-(2-fluoro-1-fluoromethyl-ethoxy)-pyrimidin-2-yloxy]-phenyl}-methanone O-methyl oxime], the pest or weed control at 100 g/ha [1] is reported as ≤ 100% and the chromatographic logP [2] is reported as 2.2.

With CON=C(C1=NOCCO1)c1ccccc1Oc1nccc(OCC(Cl)(Cl)Cl)n1 [Example 2, (5,6-dihydro-[1,4,2]dioxazin-3-yl)-{2-[4-(2,2,2-trichloroethoxy)-pyrimidine-2-yloxy]-phenyl}-methanone O-methyl oxime] the pest or weed control at 100 g/ha [1] was ≤ 100%, the chromatographic logP [2] was 3.1 and the Efficacy in % [3] was “more than 90%”.

In the case of CON=C(C1=NOCCO1)c1ccccc1Oc1nccc(OC(C)C(F)(F)F)n1 (stereo not drawn) [Example 4], the chromatographic logP ([2]; Table 1) is reported as 2.9.

For CCOc1ccnc(Oc2ccccc2C(=NOC)C2=NOCCO2)n1 [Example 5], the Efficacy in % [4] was “at least 70%” and the chromatographic logP ([2]; Table 1) was 2.2.

In the case of CCCOc1ccnc(Oc2ccccc2C(=NOC)C2=NOCCO2)n1 [Example 6], the Efficacy in % [4] is reported as “at least 70%”, the Efficacy in % [5] is reported as 100% and the chromatographic logP ([2]; Table 1) is reported as 2.5. The Efficacy in % [3] was “more than 90%”.

In the case of CON=C(C1=NOCCO1)c1ccccc1Oc1nccc(OC(C)C)n1 [Example 7], the pest or weed control at 100 g/ha [1] is reported as ≤ 100% and the chromatographic logP ([2]; Table 1) is reported as 2.5.

For CON=C(C1=NOCCO1)c1ccccc1Oc1nccc(OCC(F)(F)C(F)(F)F)n1 [Example 8], the pest or weed control at 100 g/ha [1] was ≤ 100%, the chromatographic logP ([2]; Table 1) was 3.1 and the Efficacy in % [3] was “more than 90%”.

With CCCCOc1ccnc(Oc2ccccc2C(=NOC)C2=NOCCO2)n1 [Example 9] the pest or weed control at 100 g/ha [1] was ≤ 100% and the chromatographic logP ([2]; Table 1) was 3.

For CON=C(C1=NOCCO1)c1ccccc1Oc1nccc(OCC(Cl)Cl)n1 [Example 10], the pest or weed control at 100 g/ha [1] was ≤ 100% and the chromatographic logP ([2]; Table 1) was 2.7.

In the case of CON=C(C1=NOCCO1)c1ccccc1Oc1nccc(OCC(Br)(Br)Br)n1 [Example 11], the pest or weed control at 100 g/ha [1] is reported as ≤ 100% and the chromatographic logP ([2]; Table 1) is reported as 3.2.

For CON=C(C1=NOCCO1)c1ccccc1Oc1nccc(OCc2ccccc2)n1 [Example 12], the pest or weed control at 100 g/ha [1] was ≤ 100% and the chromatographic logP ([2]; Table 1) was 2.9.

In the case of CCCCCOc1ccnc(Oc2ccccc2C(=NOC)C2=NOCCO2)n1 [Example 14], the pest or weed control at 100 g/ha [1] is reported as ≤ 100% and the chromatographic logP ([2]; Table 1) is reported as 3.3.

Molecule CON=C(C1=NOCCO1)c1ccccc1Oc1nccc(OCc2ccccc2F)n1 [Example 15] has a chromatographic logP ([2]; Table 1) of 2.9.

For CON=C(C1=NOCCO1)c1ccccc1Oc1nccc(OCc2ccc(C)cc2)n1 [Example 16], the chromatographic logP ([2]; Table 1) was 3.2.

CON=C(C1=NOCCO1)c1ccccc1Oc1nccc(OCCc2ccccc2F)n1 [Example 17] showed a chromatographic logP ([2]; Table 1) of 3.2.

Work on CCCCCCCOc1ccnc(Oc2ccccc2C(=NOC)C2=NOCCO2)n1 [Example 18] yielded a chromatographic logP ([2]; Table 1) of 4.2.

For CON=C(C1=NOCCO1)c1ccccc1Oc1nccc(OCc2cccc(F)c2)n1 [Example 19], the chromatographic logP ([2]; Table 1) was 3.

With CON=C(C1=NOCCO1)c1ccccc1Oc1nccc(OCCc2ccccc2C(F)(F)F)n1 [Example 20] the chromatographic logP ([2]; Table 1) was 3.6.

CON=C(C1=NOCCO1)c1ccccc1Oc1nccc(OC(C)c2ccccc2)n1 (stereo not drawn) [Example 21] showed a chromatographic logP ([2]; Table 1) of 3.1.

Molecule CON=C(C1=NOCCO1)c1ccccc1Oc1nccc(OCc2ccc(Cl)cc2)n1 [Example 22] has a chromatographic logP ([2]; Table 1) of 3.3.

Work on CCCCCCCCOc1ccnc(Oc2ccccc2C(=NOC)C2=NOCCO2)n1 [Example 23] yielded a chromatographic logP ([2]; Table 1) of 4.7.

For CON=C(C1=NOCCO1)c1ccccc1Oc1nccc(OC(C)c2ccccc2Cl)n1 (stereo not drawn) [Example 24], the chromatographic logP ([2]; Table 1) was 3.4.

With CON=C(C1=NOCCO1)c1ccccc1Oc1nccc(OCCc2ccccc2)n1 [Example 25] the chromatographic logP ([2]; Table 1) was 3.3.

Molecule CON=C(C1=NOCCO1)c1ccccc1Oc1nccc(OCCc2ccc(Cl)cc2)n1 [Example 26] has a chromatographic logP ([2]; Table 1) of 3.5.

CON=C(C1=NOCCO1)c1ccccc1Oc1nccc(OC2CCCCC2)n1 [Example 27] showed a chromatographic logP ([2]; Table 1) of 3.3.

CCC(C)Oc1ccnc(Oc2ccccc2C(=NOC)C2=NOCCO2)n1 (stereo not drawn) [Example 29] showed a chromatographic logP ([2]; Table 1) of 2.9.

Work on CCCCCCCCCOc1ccnc(Oc2ccccc2C(=NOC)C2=NOCCO2)n1 [Example 35] yielded a chromatographic logP ([2]; Table 1) of 5.1.

With CCCCCCCCCCOc1ccnc(Oc2ccccc2C(=NOC)C2=NOCCO2)n1 [Example 36] the chromatographic logP ([2]; Table 1) was 5.6.

Molecule CON=C(C1=NOCCO1)c1ccccc1Oc1nccc(OCCF)n1 [Example 38] has a chromatographic logP ([2]; Table 1) of 2.

Molecule CON=C(C1=NOCCO1)c1ccccc1Oc1nccc(OC(C(F)(F)F)C(F)(F)F)n1 [Example 42] has a chromatographic logP ([2]; Table 1) of 3.3.

C=CCOc1ccnc(Oc2ccccc2C(=NOC)C2=NOCCO2)n1 [Example 48] gave a chromatographic logP ([2]; Table 1) of 2.4.

Work on CON=C(C1=NOCCO1)c1ccccc1Oc1nccc(OC2CCCC2)n1 [Example 54] yielded a chromatographic logP ([2]; Table 1) of 3.

CON=C(C1=NOCCO1)c1ccccc1Oc1nccc(OCC2CCCC2)n1 [Example 58] gave a chromatographic logP ([2]; Table 1) of 3.4.

For CON=C(C1=NOCCO1)c1ccccc1Oc1nccc(OCC2CC2)n1 [Example 59], the chromatographic logP ([2]; Table 1) was 2.5.

With CON=C(C1=NOCCO1)c1ccccc1Oc1nccc(OCc2ccc(C)c(Cl)c2)n1 [Example 86] the chromatographic logP ([2]; Table 1) was 3.7.

Molecule CON=C(C1=NOCCO1)c1ccccc1Oc1nccc(OCCc2ccc(OC)cc2)n1 [Example 98] has a chromatographic logP ([2]; Table 1) of 3.

Molecule CON=C(C1=NOCCO1)c1ccccc1Oc1nccc(OCCCc2ccccc2)n1 [Example 101] has a chromatographic logP ([2]; Table 1) of 3.4.

Work on CON=C(C1=NOCCO1)c1ccccc1Oc1nccc(SC)n1 [Example 108] yielded a chromatographic logP ([2]; Table 1) of 2.2.

CON=C(C1=NOCCO1)c1ccccc1Oc1nccc(SCc2ccccc2)n1 [Example 120] gave a chromatographic logP ([2]; Table 1) of 3.14.

Work on CON=C(C1=NOCCO1)c1ccccc1Oc1nccc(NCc2ccccc2)n1 [Example 136] yielded a chromatographic logP ([2]; Table 1) of 1.6.

Work on CON=C(C1=NOCCO1)c1ccccc1Oc1nccc(NCCc2ccccc2)n1 [Example 139] yielded a chromatographic logP ([2]; Table 1) of 2.4.

In the case of CON=C(C1=NOCCO1)c1ccccc1Oc1nccc(N(C)Cc2ccccc2)n1 [Example 152], the chromatographic logP ([2]; Table 1) is reported as 1.84.

Molecule CON=C(C1=NOCCO1)c1ccccc1Oc1nccc(OCc2ccc(OC)cc2)n1 [Example 156] has a chromatographic logP ([2]; Table 1) of 2.8.

With CON=C(C1=NOCCO1)c1ccccc1Oc1nccc(OCC(F)(F)C(F)F)n1 [Example 157] the chromatographic logP ([2]; Table 1) was 2.6.

Molecule CON=C(C1=NOCCO1)c1ccccc1Oc1nccc(OCCC(F)(F)F)n1 [Example 158] has a chromatographic logP ([2]; Table 1) of 2.6.

Work on CON=C(C1=NOCCO1)c1ccccc1Oc1nccc(OCCCCCc2ccccc2)n1 [Example 159] yielded a chromatographic logP ([2]; Table 1) of 4.1.

With C#CCOc1ccnc(Oc2ccccc2C(=NOC)C2=NOCCO2)n1 [Example 160] the chromatographic logP ([2]; Table 1) was 2.1.

With CON=C(C1=NOCCO1)c1ccccc1Oc1nccc(OCC=Cc2ccccc2)n1 [Example 161] the chromatographic logP ([2]; Table 1) was 3.3.

With CON=C(C1=NOCCO1)c1ccccc1Oc1nccc(OCC2C(C=C(C)C)C2(C)C)n1 (stereo not drawn) [Example 162] the chromatographic logP ([2]; Table 1) was 4.3.

For CCCCCCCCCCCCCCCCOc1ccnc(Oc2ccccc2C(=NOC)C2=NOCCO2)n1 [Example 163], the chromatographic logP ([2]; Table 1) was > 7.4.

With C=CC(C)Oc1ccnc(Oc2ccccc2C(=NOC)C2=NOCCO2)n1 (stereo not drawn) [Example 164] the chromatographic logP ([2]; Table 1) was 2.7.

Molecule C/C=C/C=C/COc1ccnc(Oc2ccccc2C(=NOC)C2=NOCCO2)n1 [Example 165] has a chromatographic logP ([2]; Table 1) of 3.2.

For C/C=C\COc1ccnc(Oc2ccccc2C(=NOC)C2=NOCCO2)n1 [Example 166], the chromatographic logP ([2]; Table 1) was 2.7.

For CON=C(C1=NOCCO1)c1ccccc1Oc1nccc(OCc2ccc(SC)cc2)n1 [Example 168], the chromatographic logP ([2]; Table 1) was 2.1.

C=C(Br)COc1ccnc(Oc2ccccc2C(=NOC)C2=NOCCO2)n1 [Example 169] gave a chromatographic logP ([2]; Table 1) of 2.7.

In the case of CON=C(C1=NOCCO1)c1ccccc1Oc1nccc(NC(C)c2ccccc2)n1 (stereo not drawn) [Example 171], the chromatographic logP ([2]; Table 1) is reported as 1.8.

Molecule CON=C(C1=NOCCO1)c1ccccc1Oc1nccc(OCC2(C)CC2(Cl)Cl)n1 (stereo not drawn) [Example 172] has a chromatographic logP ([2]; Table 1) of 3.3.

CON=C(C1=NOCCO1)c1ccccc1Oc1nccc(Cl)n1 [II-1, [2-(4-chloro-pyrimidin-2-yloxy)-phenyl]-(5,6-dihydro-[1,4,2]dioxazin-3-yl)-methanone O-methyl oxime] gave a chromatographic logP [2] of 2.

For CON=C(C1=NOCCO1)c1ccccc1Oc1nccc(OCC(Br)(Br)Br)n1 [drawing 37], the Efficacy in % [1] was 100%.

Work on CON=C(C1=NOCCO1)c1ccccc1Oc1nccc(OCc2ccccc2)n1 [drawing 38] yielded an Efficacy in % [1] of 100%.

CCCCCCOc1ccnc(Oc2ccccc2C(=NOC)C2=NOCCO2)n1 [drawing 39] showed an Efficacy in % [1] of 100%.

Work on CCCCCOc1ccnc(Oc2ccccc2C(=NOC)C2=NOCCO2)n1 [drawing 40] yielded an Efficacy in % [1] of 99%.

For CON=C(C1=NOCCO1)c1ccccc1Oc1nccc(OCC(F)(F)C(F)(F)F)n1 [drawing 43], the Efficacy in % [3] was 92%.
